# Reference: patent publication US12053473B2, “Benzylamino substituted quinazolines and derivatives as SOS1 inhibitors” (priority 2016, dated 2024)
# Where two headings read alike, the source gives them in different places.
# Target: SOS1 and KRAS G12D (protein-protein interaction) (Homo sapiens, UniProt Q07889)
# Test: KRAS::SOS1 AlphaScreen binding assay
# Procedure: KRAS::SOS1 AlphaScreen Binding Assay
# Low IC50 values are indicative of high potency of the SOS1 inhibitor compound in this assay setting:
# 10 nM (final assay concentration) KRAS G12D, 10 μM (final assay concentration) GDP and 5 nM (final assay concentration) GST-SOS1 are mixed in assay buffer prior to use and kept at room temperature.
# AlphaLSA Glutathione Acceptor Beads and AlphaScreen Streptavidin Donor Beads are mixed in assay buffer at a concentration of 10 μg/mL (final assay concentration) each prior to use and kept at room temperature.
# Compounds are diluted to a final start concentration of 100 μM and are tested in duplicate. […] For compound a start concentration of 100 μM, 150 nL of compound solution is transferred per well in 11 concentrations in duplicate with serial 1:5 dilutions.
# The assay is run using a fully automated robotic system in a darkened room below 100 Lux. 10 μL of KRAS::SOS1 GDP mix is added into columns 1-24 to the 150 nL of compound solution (final dilution in the assay 1:100, final DMSO concentration 1%).
# After a 30 minute incubation time 5 μL of bead mix is added into columns 1-23. Plates are kept at room temperature in a darkened incubator. After a further 60 minute incubation, the signal is measured using a PerkinElmer Envision HTS Multilabel Reader using the AlphaScreen specifications from PerkinElmer. Each plate contains the following controls: • diluted DMSO+KRAS::SOS1 GDP mix+bead mix • diluted DMSO+KRAS::SOS1 GDP mix Result Calculation:
# IC50 values are calculated and analyzed using a 4 parametric logistic model.
# [1] = assay buffer without EDTA (values not marked with an asterisk), read-out: IC50 (SOS1)
# [2] = assay buffer with 100 μM EDTA (values marked with an asterisk), read-out: IC50 (SOS1)
# [3] = values marked with * in the table, read-out: IC50 (SOS1)
Compound,IC50 (read-out: IC50 (SOS1)) [nM],further results
CC(=O)N1CCC(c2cc3c(N[C@H](C)c4cccc(C)c4)nc(C)nc3cc2C)CC1 [I-271],24,
COc1cc2nc(C)nc(N[C@H](C)c3cccc(C(F)(F)F)c3)c2cc1C(C)CC(=O)NC1CC1 (some centres unmarked) [I-383],21,
COc1cc2nc(C)nc(N[C@H](C)c3cccc(C(F)(F)F)c3F)c2cc1C1(O)CCN(C(C)=O)CC1 [I-45],,IC50 [1]: 2 nM
Cc1nc(N[C@H](C)c2cccc(C(F)(F)F)c2F)c2cc([C@]3(O)CC[C@@H](O)CC3)ccc2n1 [I-61],,IC50: 8 nM
Cc1cccc([C@@H](C)Nc2nc(C)nc3ccc([C@H]4CC[C@H](O)CC4)cc23)c1 [I-64],,IC50 [2]: 34 nM
Cc1cccc([C@@H](C)Nc2nc(C)nc3cc(C)c(-c4ccc(=O)n(C)c4)cc23)c1 [I-105],,IC50 [3]: 36 nM
Cc1cccc([C@@H](C)Nc2nc(C)nc3c(C)cc(C4CCN(C(C)C)CC4)cc23)c1 [I-289],,IC50 [1]: 18 nM
CCn1cc(-c2cc3c(N[C@H](C)c4cc(N)cc(C(F)(F)F)c4)nc(C)nc3cc2C)ccc1=O [I-347],6,
COc1cc2nc(C)nc(N[C@H](C)c3cc(N)cc(C(F)(F)F)c3F)c2cc1C1CCS(=O)(=O)CC1 [I-311],6,
Cc1nc(N[C@H](C)c2cc(N)cc(C(F)(F)F)c2)c2cc(C3CCS(=O)(=O)CC3)cc(C)c2n1 [I-316],6,
Cc1nc(N[C@H](C)c2cccc(C(F)(F)F)c2)c2cc(-c3ccn(CC(=O)N(C)C)c(=O)c3)ccc2n1 [I-337],,IC50 [3]: 37 nM
Cc1nc(N[C@H](C)c2cccc(C(F)(F)F)c2C)c2cc(C3(O)CCC(O)CC3)ccc2n1 (some centres unmarked) [I-63],,"IC50 (read-out: IC50 (SOS1), assay buffer without EDTA (values not marked with an asterisk)): 9 nM"
CCN(C)C(=O)[C@H]1CC[C@@H](c2ccc3nc(C)nc(N[C@H](C)c4cc(N)cc(C(F)(F)F)c4)c3c2)CC1 [I-239],15,
COc1cc2nc(C)nc(N[C@H](C)c3cccc(C(F)(F)F)c3)c2cc1-c1ccc(C(=O)N2CCOCC2)cc1 [I-215],37,
COc1cc2nc(C)nc(N[C@H](C)c3cccc(C(F)(F)F)c3)c2cc1C1CCC(C(=O)N(C)CC(O)CO)CC1 (some centres unmarked) [I-227],27,
COCCN(C)C(=O)[C@H]1CC[C@H](c2cc3c(N[C@H](C)c4cc(N)cc(C(F)(F)F)c4)nc(C)nc3cc2OC)CC1 [I-357],3,
Cc1nc(N[C@H](C)c2cc(N)cc(C(F)(F)F)c2)c2cc(-c3ccc(=O)[nH]c3)ccc2n1 [I-102],9,
COc1cc2nc(C)nc(N[C@H](C)c3cc(N)cc(C(F)(F)F)c3F)c2cc1[C@H]1CC[C@@H](C(=O)N(C)C)CC1 [I-245],35,
CC(=O)N1CC[C@H](Oc2cc3c(N[C@H](C)c4cc(N)cc(C(F)(F)F)c4)nc(C)nc3cc2F)C1 [I-8],,IC50 [1]: 6 nM
CNC(=O)CC(C)c1cc2c(N[C@H](C)c3cccc(C(F)(F)F)c3)nc(C)nc2cc1C (some centres unmarked) [I-377],10,
CC(=O)N1CCC(O)(c2ccc3nc(C)nc(N[C@H](C)c4cccc(C)c4)c3c2)CC1 [I-52],,IC50 [1]: 14 nM
COCCN1CCN(C(=O)[C@H]2CC[C@H](c3ccc4nc(C)nc(N[C@H](C)c5cc(N)cc(C(F)(F)F)c5)c4c3)CC2)CC1 [I-240],2,
COc1cc2nc(C)nc(N[C@H](C)c3cc(N)cc(C(F)(F)F)c3)c2cc1-c1ccc(C(=O)N(C)CCO)nc1 [I-224],4,
Cc1nc(N[C@H](C)c2cccc(Cl)c2)c2cc(C3=CCNCC3)ccc2n1 [I-172],,IC50 [2]: 39 nM
COc1cc2nc(C)nc(N[C@H](C)c3cc(N)cc(C(F)(F)F)c3)c2cc1O[C@H]1CCN(C(C)=O)C1 [I-7],,IC50 [1]: 3 nM
COc1cc2nc(C)nc(N[C@H](C)c3cccc(C(F)(F)CO)c3)c2cc1C1CCN(C(C)=O)CC1 [I-166],,IC50 [1]: 2 nM
COc1cc2nc(C)nc(N[C@H](C)c3cccc(C)c3)c2cc1-c1ccc(=O)[nH]c1 [I-101],,IC50 [3]: 28 nM

Compound,IC50 (read-out: IC50 (SOS1)) [nM],further results
Cc1nc(N[C@H](C)c2cccc(C(F)(F)F)c2)c2cc(C(C)CC(=O)NCC(F)(F)F)c(C)cc2n1 (some centres unmarked) [I-380],42,
Cc1cccc([C@@H](C)Nc2nc(C)nc3ccc(-c4cc5n(n4)CCC(=O)N5)cc23)c1 [I-87],,IC50 [3]: 18 nM
COCCN(C)C(=O)[C@H]1CC[C@@H](c2ccc3nc(C)nc(N[C@H](C)c4cc(N)cc(C(F)(F)F)c4)c3c2)CC1 [I-237],9,
Cc1nc(N[C@H](C)c2cc(N)cc(C(F)(F)F)c2)c2cc(-c3ccc(=O)n(C)c3)ccc2n1 [I-104],,IC50 [3]: 6 nM
Cc1nc(N[C@H](C)c2cc(N)cc(C(F)(F)F)c2)c2cc([C@H]3CC[C@H](O)CC3)ccc2n1 [I-65],,IC50 [1]: 8 nM
Cc1nc(N[C@H](C)c2cccc(C(F)(F)F)c2)c2cc(-c3cc4n(n3)CCC(=O)N4)c(C)cc2n1 [I-89],,IC50 [3]: 34 nM
COc1cc2nc(C)nc(N[C@H](C)c3cc(N)cc(C(F)(F)F)c3C)c2cc1[C@H]1CC[C@@H](C(=O)N(C)C)CC1 [I-249],38,
COc1cc2nc(C)nc(N[C@H](C)c3cc(N)cc(C(F)(F)F)c3F)c2cc1C1CCN(C(C)=O)CC1 [I-278],2,
COc1cc2nc(C)nc(N[C@H](C)c3cc(N)cc(C(F)(F)F)c3)c2cc1-c1cnn(CC(=O)N(C)C)c1 [I-84],6,
COc1cc2nc(C)nc(N[C@H](C)c3cc(N)cc(C(F)(F)F)c3)c2cc1-c1ccc(=O)n(C)c1 [I-108],8,
COCC(=O)N1CCC(c2cc3c(N[C@H](C)c4cccc(C)c4)nc(C)nc3cc2C)CC1 [I-272],34,
COc1cc2nc(C)nc(N[C@H](C)c3cccc(C4(O)COC4)c3)c2cc1C1=CCN(C(C)=O)CC1 [I-17],,IC50 [1]: 34 nM
CONC(=O)CC(C)c1cc2c(N[C@H](C)c3cccc(C(F)(F)F)c3)nc(C)nc2cc1C (some centres unmarked) [I-378],8,
Cc1nc(N[C@H](C)c2cc(N)cc(C(F)(F)F)c2)c2cc(O[C@H]3CCOC3)c(C)cc2n1 [I-10],,IC50 [1]: 7 nM
Cc1nc(N[C@H](C)c2cc(N)cc(C(F)(F)F)c2)c2cc([C@H]3CC[C@H](C(=O)N(C)C[C@@H](C)O)CC3)ccc2n1 [I-256],3,
Cc1nc(N[C@H](C)c2cc(N)cc(C(F)(F)F)c2)c2cc(C3CCS(=O)(=O)CC3)ccc2n1 [I-322],3,
Cc1nc(N[C@H](C)c2cc(N)cc(C(F)(F)F)c2)c2cc([C@H]3CC[C@H](C(=O)N(C)C)CC3)ccc2n1 [I-298],3,
COc1cc2nc(C)nc(N[C@H](C)c3cccc(C(F)(F)F)c3)c2cc1C1CCN(C(C)=O)CC1 [I-308],9,
Cc1nc(N[C@H](C)c2cc(N)cc(C(F)(F)F)c2)c2cc([C@H]3CC[C@@H](C(=O)N(C)CCO)CC3)ccc2n1 [I-253],7,
Cc1nc(N[C@H](C)c2cc(N)cc(C(F)(F)F)c2)c2cc(C3CCN(C(=O)CN(C)C)CC3)ccc2n1 [I-313],3,
Cc1nc(N[C@H](C)c2cccc(C(F)(F)F)c2)c2cc([C@]3(O)CC[C@H](O)CC3)ccc2n1 [I-59],,IC50: 20 nM
Cc1nc(N[C@H](C)c2cc(N)cc(C(F)(F)F)c2)c2cc(O[C@H]3CCN(C(=O)C4CC4)C3)c(C)cc2n1 [I-54],,IC50 [1]: 4 nM
COc1cc2nc(C)nc(N[C@H](C)c3cccc(C(F)(F)F)c3)c2cc1C1(O)CCN(C(C)=O)CC1 [I-44],,IC50 [1]: 4 nM
Cc1nc(N[C@H](C)c2cc(N)cc(C(F)(F)F)c2)c2cc(C3CCS(=O)(=O)CC3)c(F)cc2n1 [I-320],4,
Cc1nc(N[C@H](C)c2cc(N)cc(C(F)(F)F)c2)c2cc([C@H]3CC[C@H](C(=O)N(C)CC(C)(C)O)CC3)ccc2n1 [I-258],3,
COCCN1CCN(C(=O)[C@H]2CC[C@@H](c3cc4c(N[C@H](C)c5cc(N)cc(C(F)(F)F)c5F)nc(C)nc4cc3OC)CC2)CC1 [I-247],,IC50: 18 nM
